Results on 13 compounds are retold here after patent US8933015B2, “Macrocyclic inhibitors of flaviviridae viruses” (Gilead Sciences, Inc., priority 2010, dated 2015).

In test [1] the test system is human hepatoma Huh-7 cell line harboring a HCV replicon. Briefly: HCV replicon assay (inhibition of viral replication, luciferase). Format: cell-based. The settings on record: Hepatitis C virus; for EC50: Huh-7, 72 h; for inhibition at 1 µM: Huh-7, read-out: % inhibition at 1 μM. The protocol: The anti-HCV activity of the compounds of this invention was tested in a human hepatoma Huh-7 cell line harboring a HCV replicon. The assay comprised the following steps:
Step 1: Compound Preparation and Serial Dilution
Serial dilution was performed in 100% DMSO in a 384-well plate. A solution containing a compound at 225-fold concentration of the starting final serial dilution concentration was prepared in 100% DMSO and 15 uL added to the pre-specified wells in column 3 or 13 of a polypropylene 384-well plate. The rest of the 384-well plate was filled with 10 uL 100% DMSO except for columns 23 and 24, where 10 uL of 500 uM a HCV protease inhibitor (ITMN-191) in 100% DMSO was added. […] The plate was then placed on a Biomek FX Workstation to start the serial dilution. The serial dilution was performed for ten cycles of 3-fold dilution from column 3 to 12 or from column 13 to 22.
Step 2: Cell Culture Plate Preparation and Compound Addition
To each well of a black polypropylene 384-well plate, 90 μL of cell media containing 1600 suspended Huh-7 HCV replicon cells was added with a Biotek uFlow Workstation. A volume of 0.4 μL of the compound solution was transferred from the serial dilution plate to the cell culture plate on a Biomek FX Workstation. The DMSO concentration in the final assay condition was 0.44%. The plates were incubated for 3 days at 37° C. with 5% CO2 and 85% humidity.
Step 3: Detection of Cytotoxicity and Inhibition of Viral Replication
b) Assessment of inhibition of viral replication: The calcein-PBS solution in the 384-well cell culture plate was aspirated with a Biotek EL405 plate-washer. A volume of 20 μL of Dual-Glo luciferase buffer (Promega, Dual-Glo Luciferase Assay Reagent, cat. #E298B) was added to each well of the plate with a Biotek uFlow Workstation. The plate was incubated for 10 minutes at room temperature. A volume of 20 μL of a solution containing 1:100 mixture of Dual-Glo Stop & Glo substrate (Promega, Dual-Glo Luciferase Assay Reagent, cat. #E313B) and Dual-Glo Stop & Glo buffer (Promega, Dual-Glo Luciferase Assay Reagent, cat. #E314B) was then added to each well of the plate with a Biotek uFlow Workstation. The plate was incubated at room temperature for 10 minutes before the luminescence signal was measured with a Perkin Elmer Envision Plate Reader.
The percent cytotoxicity was determined by calcein AM conversion to fluorescent product. The average fluorescent signal from the DMSO control wells were defined as 100% nontoxic. The individual fluorescent signal from testing compound treated well was divided by the average signal from DMSO control wells and then multiplied by 100% to get the percent viability. The percent anti-HCV replication activity was determined by the luminescence signal from the testing well compared to DMSO controls wells. The background signal was determined by the average luminescence signal from the HCV protease inhibitor treated wells and was subtracted from the signal from the testing wells as well as the DMSO control wells.
Where b is Hill's coefficient. See, for reference, Hill, A. V., The Possible Effects of the Aggregation of the Molecules of Hemoglobin on its Dissociation Curves, J. Physiol. 40: iv-vii. (1910).
% inhibition values at a specific concentration, for example 2 μM, can also be derived from the formula above.
The EC50's are presented as a % inhibition.
(In general: Replicon systems follow genome replication, usually without infectious particles.)

Test [2] has as its target cyclophilin A (Homo sapiens, UniProt P62937). Briefly: Cyclophilin A TR-FRET competitive binding assay. The note with it: inhibition of cyclophilin binding; 5 nM CypA, 150 nM CsA-Cy5. The method, then: Cyclophilin A TR-FRET Competitive Binding Assay
Inhibitor potency was measured using a competitive binding assay with a time-resolved fluorescence resonance energy transfer (TR-FRET) readout. […] The total volume of the assay solution was 100 μL. […] An IC50 value was calculated using a four-parameter logistic fit.
On the technique in general: TR-FRET usually uses a lanthanide donor and a delayed reading to cut background.

Sequence of cyclophilin A (P62937 whole entry, species assumed): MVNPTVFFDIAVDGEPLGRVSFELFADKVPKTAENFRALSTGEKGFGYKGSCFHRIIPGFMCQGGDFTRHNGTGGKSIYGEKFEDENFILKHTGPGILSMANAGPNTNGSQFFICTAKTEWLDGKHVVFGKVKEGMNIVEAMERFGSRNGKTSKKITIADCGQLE

For `CC(C)[C@@H]1NC(=O)[C@H](C)[C@H](O)c2ccc(cc2)CCCCOC(=O)[C@@H]2CCCN(N2)C(=O)[C@H](Cc2cccc(O)c2)NC1=O` [Compound 9, (8S,14S,17S,20R,21S)-21-Hydroxy-14-(3-hydroxy-benzyl)-17-isopropyl-20-methyl-6-oxa-12,15,18,27-tetraaza-tricyclo[20.2.2.1*8,12*]heptacosa-1(25),22(26),23-triene-7,13,16,19-tetraone], in test [1], the EC50 fell in the range of 10100 to 100000 nM and the inhibition at 1 µM was 4%. The same compound registered an IC50 in test [2] of 1000 to 10000 nM.
For `CO[C@@H]1[C@@H](C)[C@@H](OC)/C=C/C=C/C[C@@H](C)OC(=O)[C@@H]2CCCN(N2)C(=O)[C@H](Cc2cccc(O)c2)NC(=O)[C@H](C(C)C)NC(=O)[C@@H]1C` [Compound 12, (13E,15E)-(3S,6S,9R,10R,11S,12S,18R,21S)-3-(3-Hydroxy-benzyl)-6-isopropyl-10,12-dimethoxy-9,11,18-trimethyl-19-oxa-1,4,7,25-tetraaza-bicyclo[19.3.1]pentacosa-13,15-diene-2,5,8,20-tetraone], in test [1], the concentration for a half-maximal effect (EC50) was less than 1000 nM and the inhibition at 1 µM amounted to 82%. Moreover, the IC50 in test [2] is less than 100 nM.
In the case of `CO[C@@H]1CC/C=C/c2cccc(c2)[C@@H](C)NC(=O)[C@@H]2CCCN(N2)C(=O)[C@H](Cc2cccc(O)c2)NC(=O)[C@H](C(C)C)NC(=O)[C@@H]1C` [Compound 16, (E)-(2R,5S,11S,14S,17R,18R)-11-(3-Hydroxy-benzyl)-14-isopropyl-18-methoxy-2,17-dimethyl-3,9,12,15,28-pentaaza-tricyclo[21.3.1.1*5,9*]octacosa-1(27),21,23,25-tetraene-4,10,13,16-tetraone], in test [1], the EC50 was less than 1000 nM and the inhibition at 1 µM came to 75%. This compound came in with a concentration for half-maximal inhibition (IC50) in test [2] of less than 100 nM.
Regarding `CO[C@@H]1CC/C=C/c2ccnc(c2)COC(=O)[C@@H]2CCCN(N2)C(=O)[C@H](Cc2cccc(O)c2)NC(=O)[C@H](C(C)C)NC(=O)[C@@H]1C` [Compound 17, (E)-(1S,14R,15R,18S,21S)-21-(3-Hydroxy-benzyl)-18-isopropyl-14-methoxy-15-methyl-3-oxa-6,17,20,23,27-pentaaza-tricyclo[21.3.1.1*5,9*]octacosa-5,7,9(28),10-tetraene-2,16,19,22-tetraone], in test [1], the EC50 is less than 1000 nM and the inhibition at 1 µM came out at 56%. Further, the half-inhibitory concentration (IC50) in test [2] was less than 100 nM.
On to `CO[C@@H]1CC/C=C/c2cc(ccn2)COC(=O)[C@@H]2CCCN(N2)C(=O)[C@H](Cc2cccc(O)c2)NC(=O)[C@H](C(C)C)NC(=O)[C@@H]1C` [Compound 18, (E)-(1S,14R,15R,18S,21S)-21-(3-Hydroxy-benzyl)-18-isopropyl-14-methoxy-15-methyl-3-oxa-8,17,20,23,27-pentaaza-tricyclo[21.3.1.1*5,9*]octacosa-,7,9(28),10-tetraene-2,16,19,22-tetraone], for which, in test [1], the EC50 is less than 1000 nM and the inhibition at 1 µM is 54%. The compound also had an IC50 in test [2] of less than 100 nM.
Taken in the same sequence, the figures for `CO[C@@H]1CC/C=C/c2ccc3c(c2)[C@@H](CC3)OC(=O)[C@@H]2CCCN(N2)C(=O)[C@H](Cc2cccc(O)c2)NC(=O)[C@H](C(C)C)NC(=O)[C@@H]1C` [Compound 19] were less than 1000 nM, 70% and less than 100 nM.
Taken in the same sequence, the figures for `CO[C@@H]1CCCCc2cccc(c2)[C@@H](C)OC(=O)[C@@H]2CCCN(N2)C(=O)[C@H](Cc2cccc(O)c2)NC(=O)[C@H](C(C)C)NC(=O)[C@@H]1C` [Compound 20, (2R,5S,11S,14S,17R,18R)-11-(3-Hydroxy-benzyl)-14-isopropyl-18-methoxy-2,17-dimethyl-3-oxa-9,12,15,28-tetraaza-tricyclo[21.3.1.1*5,9*]octacosa-1(27),23,25-triene-4,10,13,16-tetraone] were less than 1000 nM, 92% and less than 100 nM.
Turning to `COc1ccc(C[C@@H]2NC(=O)[C@H](C)[C@H](OC)[C@@H](C)[C@@H](OC)/C=C/C=C/CCOC(=O)[C@@H]3CCCN(N3)C(=O)[C@H](Cc3cccc(O)c3)NC2=O)cc1` [Compound 21, (13 E,15E)-(3S,6S,9R,10R,11S,12S,21S)-3-(3-Hydroxy-benzyl)-10,12-dimethoxy-6-(4-methoxy-benzyl)-9,11-dimethyl-19-oxa-1,4,7,25-tetraazabicyclo[19.3.1]pentacosa-13,15-diene-2,5,8,20-tetraone], in test [1], the EC50 fell in the range of 1100 to 10000 nM and the inhibition at 1 µM is 18%. Moreover, the IC50 in test [2] lay in the range of 101 to 1000 nM.
Consider `CO[C@@H]1CC/C=C/c2cccc(c2)[C@@H](C)OC(=O)[C@@H]2CCCN(N2)C(=O)[C@H](Cc2cccc(O)c2)NC(=O)[C@H](C(C)C)NC(=O)C1` [Compound 22, (E)-(2R,5S,11S,14S,18R)-11-(3-Hydroxy-benzyl)-14-isopropyl-18-methoxy-2-methyl-3-oxa-9,12,15,28-tetraaza-tricyclo[21.3.1.1*5,9*]octacosa-1(26),21,23(27),24-tetraene-4,10,13,16-tetraone], for which, in test [1], the half-maximal effective concentration (EC50) is less than 1000 nM and the inhibition at 1 µM was 70%. Moreover, the IC50 in test [2] is less than 100 nM.
Regarding `CO[C@@H]1CC/C=C/CCCCOC(=O)[C@@H]2CCCN(N2)C(=O)[C@H](Cc2cccc(O)c2)NC(=O)[C@H](C(C)C)NC(=O)[C@@H]1C` [Compound 23, (E)-(3S,6S,9R,10R,21S)-3-(3-Hydroxy-benzyl)-6-isopropyl-10-methoxy-9-methyl-19-oxa-1,4,7,25-tetraaza-bicyclo[19.3.1]pentacos-13-ene-2,5,8,20-tetraone], in test [1], the EC50 is less than 1000 nM and the inhibition at 1 µM was 41%. The compound also showed an IC50 in test [2] of 101 to 1000 nM.
Regarding `CCO[C@@H]1CC/C=C/c2cccc(c2)COC(=O)[C@@H]2CCCN(N2)C(=O)[C@H](Cc2cccc(O)c2)NC(=O)[C@H](C(C)C)NC(=O)[C@@H]1C` [Compound 24, (E)-(5S,11S,14S,17R,18R)-18-Ethoxy-11-(3-hydroxy-benzyl)-14-isopropyl-17-methyl-3-oxa-9,12,15,28-tetraaza-tricyclo[21.3.1.1*5,9*]octacosa-1(26),21,23(27),24-tetraene-4,10,13,16-tetraone], in test [1], the EC50 was less than 1000 nM and the inhibition at 1 µM is 65%. The IC50 in test [2] was less than 100 nM.
As to `CO[C@@H]1[C@@H](C)[C@@H](OC)CCc2cccc(c2)CNC(=O)[C@@H]2CCCN(N2)C(=O)[C@H](Cc2cccc(O)c2)NC(=O)[C@H](C(C)C)NC(=O)[C@@H]1C` [Compound 25, (5S,11S,14S,17R,18R,19S,20S)-11-(3-Hydroxy-benzyl)-14-isopropyl-18,20-dimethoxy-17,19-dimethyl-3,9,12,15,28-pentaaza-tricyclo[21.3.1.1*5,9*]octacosa-1(27),23,25-triene-4,10,13,16-tetraone], in test [1], the EC50 was in the range of 1100 to 10000 nM and the inhibition at 1 µM was 34%. Further, the IC50 in test [2] lay within 101 to 1000 nM.
As for `CO[C@@H]1CC/C=C/C2=CC=C(COC(=O)[C@@H]3CCCN(N3)C(=O)[C@H](Cc3cccc(O)c3)NC(=O)[C@H](C(C)C)NC(=O)[C@@H]1C)S2` [Compound 26, (E)-(1S,13R,14R,17S,20S)-20-(3-Hydroxy-benzyl)-17-isopropyl-13-methoxy-14-methyl-3-oxa-27-thia-16,19,22,26-tetraaza-tricyclo[20.3.1.1*5,8*]heptacosa-5,7,9-triene-2,15,18,21-tetraone], in test [1], the half-maximal effective concentration (EC50) was 10100 to 100000 nM and the inhibition at 1 µM was 9%. The same compound registered an IC50 in test [2] of 101 to 1000 nM.

Usually EC50 stands for the concentration at which the effect is half-maximal. Low values mean an effect from little substance, high ones a need for much substance. One may read the inhibition as how much of the control response was suppressed. The IC50 is the concentration needed to halve the response being measured. High values mean weaker potency in that assay, low ones greater potency in that assay.
